Test results published in US20200055891A1, “NOVEL PHOSPHOTRIAZOLE MRNA 5'-END CAP ANALOGS, COMPOSITION COMPRISING THE SAME, RNA MOLECULE INCORPORATING THE SAME, USES THEREOF AND METHOD OF SYNTHESIZING RNA MOLECULE, PROTEIN OR PEPTIDE” (UNIWERSYTET WARSZAWSKI, priority 2016, published 2020).
Where two headings read alike, the source gives them in different places.

What was measured:
SP6 RNA polymerase = molecular target: T1, SP6 RNA polymerase (Enterobacteria phage SP6, UniProt P06221); test: Capping efficiency: incorporation of cap analogues at the 5′ end of short transcripts by in vitro transcription; assay type: biochemical; settings: 1.25 mM cap analogue, 0.125 mM GTP
T1 construct: purchased New England BioLabs
T1 sequence (P06221 1-874): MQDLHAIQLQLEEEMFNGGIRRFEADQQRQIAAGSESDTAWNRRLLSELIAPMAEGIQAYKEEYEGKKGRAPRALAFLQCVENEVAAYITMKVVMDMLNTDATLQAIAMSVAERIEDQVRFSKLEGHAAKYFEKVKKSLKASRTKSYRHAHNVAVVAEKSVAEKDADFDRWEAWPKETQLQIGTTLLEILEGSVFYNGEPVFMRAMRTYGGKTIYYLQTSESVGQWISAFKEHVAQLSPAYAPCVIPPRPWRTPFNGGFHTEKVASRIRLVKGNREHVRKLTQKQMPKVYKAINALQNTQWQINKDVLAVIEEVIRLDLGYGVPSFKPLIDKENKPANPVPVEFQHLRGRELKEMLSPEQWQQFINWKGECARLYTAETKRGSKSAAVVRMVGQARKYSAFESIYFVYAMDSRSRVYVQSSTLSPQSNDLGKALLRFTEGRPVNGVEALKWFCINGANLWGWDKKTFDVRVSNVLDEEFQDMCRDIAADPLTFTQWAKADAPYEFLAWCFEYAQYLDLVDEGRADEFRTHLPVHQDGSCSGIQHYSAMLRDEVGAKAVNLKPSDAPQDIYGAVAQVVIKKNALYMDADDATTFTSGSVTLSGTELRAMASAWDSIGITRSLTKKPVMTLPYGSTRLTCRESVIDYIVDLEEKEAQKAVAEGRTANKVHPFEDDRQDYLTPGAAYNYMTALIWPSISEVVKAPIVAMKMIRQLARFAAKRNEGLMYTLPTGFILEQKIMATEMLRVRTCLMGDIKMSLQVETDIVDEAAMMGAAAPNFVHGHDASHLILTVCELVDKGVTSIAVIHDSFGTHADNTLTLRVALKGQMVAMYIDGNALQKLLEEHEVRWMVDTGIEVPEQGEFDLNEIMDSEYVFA
Procedure: Prior to in vitro transcription annealing of a template was performed. DNA1 (SEQ ID NO: 1) and DNA2 (SEQ ID NO: 2) (20 μM each) were incubated in the presence of 4 mM Tris-HCl pH 8.0, 15 mM NaCl and 0.1 mM EDTA at 95° C. for 2 min and then at room temperature for 30 min. After 10-fold dilution the mixture was directly used for in vitro transcription.
The reaction was quenched by addition of 2 μl of 0.5 M EDTA pH 8.0 and purified with RNA Clean&Concentrator-5 kit (Zymo Research) to afford capped RNA1 (SEQ ID NO: 4) strands.
To reduce heterogeneity, each capped RNA1 (11.42 ng/μl, ca. 1 μM) was incubated in presence of 50 mM Tris-HCl pH 8.0, 50 mM MgCl2, RiboLock RNase Inhibitor (ThermoFisher Scientific) (2.0 U/μl) and DNA3 (SEQ ID NO: 3) (1 μM) at 37° C. for 1 h to afford RNA2 (SEQ ID NO: 5).^44 The reaction was stopped by freezing in liquid nitrogen and directly analyzed by PAGE (FIG. 3).
Relative bands intensity was determined using CLIQS v1.0 program.

[1] = tested on: Rabbit Reticulocyte Lysate; test: Translation efficiency of capped firefly luciferase mRNA in Rabbit Reticulocyte Lysate System; assay type: biochemical; settings: relative, m^7GpppG = 1
Procedure: The reaction was quenched by addition of 2 μl of 0.5 M EDTA pH 8.0 and purified with NucleoSpin RNA Clean-up XS kit (Macherey-Nagel) to afford luciferase-coding RNA strands capped with appropriate cap analogue.
For each capped luciferase-coding RNA four diluted solutions were prepared—3.0 ng/μl, 1.5 ng/μl, 0.75 ng/μl, 0.375 ng/μl. Translation studies were performed using Rabbit Reticulocyte Lysate System (Promega). 9 μl of a mixture containing Rabbit Reticulocyte Lysate (4 μl), Amino Acid Mixture Minus Leucine (0.05 μl of 1 mM solution), Amino Acid Mixture Minus Methionine (0.05 μl of 1 mM solution), potassium acetate (1.9 μl of 1 M solution), MgCl2 (0.4 μl of 25 mM solution) and 2.1 μl of water was incubated at 30° C. for 1 h after which 1 μl of appropriate luciferase-coding RNA solution was added and incubation of the reaction was continued at 37° C. for another hour. The reaction was stopped by freezing in liquid nitrogen.
Translation efficiency was determined using Luciferase Reporter System (Promega). The samples were defrosted just before the experiment. To every sample 50 μl of Luciferase Assay Reagent was added just before measurement of luminescence on Synergy H1 Microplate Reader (Bio Tek). The measurement were performed for every four samples independently due to low stability of luminescence signal. The results are presented on. FIG. 4 as proportions between regression coefficients of linear relationships between capped luciferase-coding RNA concentration in translation reaction (300 pg/μl, 150 pg/μl, 75 pg/μl, 37.5 pg/μl) and corresponding luminescence signal.

[2] = Hydrolysis in D2O seen in NMR spectra; assay type: physicochemical; settings: dissolved in D2O just before NMR measurement; given if higher than 5%
Procedure: Some cap analogues hydrolyzed in D2O gradually. Although pure compounds (see HPLC profiles, Supporting Information 2) were dissolved in D2O just before measurements, the spectra indicated some level of hydrolysis. % of hydrolysis is provided along with compound characterization data, if higher than 5%.

eIF4E [3] = molecular target: T2, eIF4E (Mus musculus, UniProt P63073); test: Association constants (KAS) of cap analogue-eIF4E complexes, fluorescence quenching titration; assay type: binding; settings: 20° C., 50 mM Hepes/KOH pH 7.20, 100 mM KCl; weighted average of triplicate
Procedure: Association constants for cap analogue-eIF4E complexes were determined using fluorescence quenching titration method as described previously.^42 Measurements were performed using a quartz cuvette with optical path length of 4 mm for absorption and 10 mm for emission on LS-50B spectrofluorometer Perkin-Elmer Co. (Waltham, Mass., USA). Titration experiments were carried out at 20° C. in 50 mM Hepes/KOH buffer, pH 7.20 containing 100 mM KCl, 0.5 mM EDTA, and 1 mM DTT. During the experiment 1 μl aliquots of ligand solution was added to the 1400 μl of 0.1 μM protein solution. Protein fluorescence was monitored at 337 or 345 nm (excitation 280 or 295 nm, respectively). For data analysis fluorescence intensity correction was applied for sample dilution and inner filter effect. Association constants were determined by fitting theoretical dependence of fluorescence intensity on total ligand concentration. Each experiment was performed in triplicate, the association constants were calculated as weighted averages.

eIF4E [4] = molecular target: T2, eIF4E; settings: reference cap analogues, values from refs 42/43; cited from earlier work

T2 sequence (P63073 28-217 limits assumed): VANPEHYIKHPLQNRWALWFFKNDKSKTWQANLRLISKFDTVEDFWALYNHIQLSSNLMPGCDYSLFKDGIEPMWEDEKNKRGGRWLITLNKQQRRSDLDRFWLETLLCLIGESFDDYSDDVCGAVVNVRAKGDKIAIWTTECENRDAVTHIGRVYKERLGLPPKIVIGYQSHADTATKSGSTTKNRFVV

SMILES	Capping efficiency (SP6 RNA polymerase) [%]	Translation efficiency [1]	hydrolysis in D2O [2] [%]	KAS (eIF4E [3]) [µM⁻¹]	KAS (eIF4E [4])
C[n+]1cn([C@@H]2O[C@H](COP(=O)(O)OP(=O)([O-])OP(=O)(O)Cc3cn(CCNP(=O)(O)OC[C@H]4O[C@@H](n5cnc6c(=O)[nH]c(N)nc65)C(O)C4O)nn3)C(O)C2O)c2nc(N)[nH]c(=O)c21 (stereo partly shown) [m^7GpppCH2tC2H4NHpG, m^7GpppCH2-triazole-C2H4NHpG]	44	0.94 ± 0.11	9	18.21 ± 0.72	
Cn1c[n+]([C@@H]2O[C@H](COP(=O)(O)OP(=O)([O-])O)[C@@H](O)[C@H]2O)c2nc(N)[nH]c(=O)c21 [m^7GDP]					20.4 ± 1.5^42 μM^−1
C[n+]1cn([C@@H]2O[C@H](COP(=O)(O)NCCn3cc(P(=O)([O-])OP(=O)(O)OP(=O)(O)OC[C@H]4O[C@@H](n5cnc6c(=O)[nH]c(N)nc65)C(O)C4O)nn3)C(O)C2O)c2nc(N)[nH]c(=O)c21 (stereo partly shown) [m^7GpNHC2H4tpppG, m^7GpNHC2H4-triazole-pppG]	57	0.103 ± 0.027	9	3.10 ± 0.18	
C[n+]1cn([C@@H]2O[C@H](COP(=O)(O)OP(=O)(O)OP(=O)([O-])c3cn(CCNP(=O)(O)OC[C@H]4O[C@@H](n5cnc6c(=O)[nH]c(N)nc65)C(O)C4O)nn3)C(O)C2O)c2nc(N)[nH]c(=O)c21 (stereo partly shown) [m^7GppptC2H4NHpG, m^7Gppp-triazole-C2H4NHpG]	52	0.89 ± 0.11	13	21.94 ± 0.69	
Cn1c[n+]([C@@H]2O[C@H](COP(=O)(O)OP(=O)([O-])OP(=O)(O)OC[C@H]3O[C@@H](n4cnc5c(=O)[nH]c(N)nc54)[C@H](O)[C@@H]3O)[C@@H](O)[C@H]2O)c2nc(N)[nH]c(=O)c21 [m^7GpppG, reference compound]	90	1			12.5 ± 0.3^43 μM^−1
C[n+]1cn([C@@H]2O[C@H](COP(=O)(O)NCCn3cc(CP(=O)(O)OP(=O)([O-])OP(=O)(O)OC[C@H]4O[C@@H](n5cnc6c(=O)[nH]c(N)nc65)C(O)C4O)nn3)C(O)C2O)c2nc(N)[nH]c(=O)c21 (stereo partly shown) [m^7GpNHC2H4tCH2pppG, m^7GpNHC2H4-triazole-CH2pppG]	62	0.060 ± 0.004	7		
CO[C@H]1[C@@H](O)[C@H]([n+]2cn(C)c3c(=O)[nH]c(N)nc32)O[C@@H]1COP(=O)([O-])OP(=O)(O)OP(=O)(O)OC[C@H]1O[C@@H](n2cnc3c(=O)[nH]c(N)nc32)[C@H](O)[C@@H]1O [m2^7,3′-OGpppG, reference compound]	83	1.526 ± 0.043			10.2 ± 0.6^43 μM^−1
